From patent publication US8147838B2, “Peptide” (priority 2005, dated 2012)

Tested on: PBMCs recovered from TroVax treated patients
Assay type: cell-based, human
Conditions: from HLA-type frequency among responding patients

Substance | most likely HLA restriction
43.2: class II 5T4 20 mer peptide (details in Table 12) (LNSADLDCDPILPPSLQTSY) [Peptide 43.2] | DQ6, DR15, or DR51
44.2: class II 5T4 20 mer peptide (details in Table 12) (DPILPPSLQTSYVFLGIVLA) [Peptide 44.2] | DQ6, DR15, DR51, or DR52
45.2: class II 5T4 20 mer peptide (details in Table 12) (MRNRVLLELNSADLDCDPIL) [Peptide 45.2] | DQ6, DR53, DR15, or DR51

Same assay, conditions: positive proliferative responses

Substance | responders with HLA type DQ6 out of all responders | responders with HLA type DR15 out of all responders | responders with HLA type DR51 out of all responders | responders with HLA type DR52 out of all responders | responders with HLA type DR53 out of all responders
43.2: class II 5T4 20 mer peptide (details in Table 12) (LNSADLDCDPILPPSLQTSY) [Peptide 43.2] | 7 out of 11 | 6 out of 11 | 6 out of 11 | – | –
44.2: class II 5T4 20 mer peptide (details in Table 12) (DPILPPSLQTSYVFLGIVLA) [Peptide 44.2] | 5 out of 9 | 5 out of 9 | 5 out of 9 | 5 out of 9 | –
45.2: class II 5T4 20 mer peptide (details in Table 12) (MRNRVLLELNSADLDCDPIL) [Peptide 45.2] | 5 out of 8 | 4 out of 8 | 4 out of 8 | – | 5 out of 8

Same assay, conditions: responding patients with HLA type DQ2 / all responding patients; PBMCs from TroVax treated patients

Substance | HLA-type distribution among positive proliferative responses: DQ2
43.2: class II 5T4 20 mer peptide (details in Table 12) (LNSADLDCDPILPPSLQTSY) [Peptide 43.2] | 5/11
44.2: class II 5T4 20 mer peptide (details in Table 12) (DPILPPSLQTSYVFLGIVLA) [Peptide 44.2] | 3/9
45.2: class II 5T4 20 mer peptide (details in Table 12) (MRNRVLLELNSADLDCDPIL) [Peptide 45.2] | 3/8

Same assay, conditions: responding patients with HLA type DQ4 / all responding patients; PBMCs from TroVax treated patients

Substance | HLA-type distribution among positive proliferative responses: DQ4
43.2: class II 5T4 20 mer peptide (details in Table 12) (LNSADLDCDPILPPSLQTSY) [Peptide 43.2] | 1/11
44.2: class II 5T4 20 mer peptide (details in Table 12) (DPILPPSLQTSYVFLGIVLA) [Peptide 44.2] | 0/9
45.2: class II 5T4 20 mer peptide (details in Table 12) (MRNRVLLELNSADLDCDPIL) [Peptide 45.2] | 0/8

Same assay, conditions: responding patients with HLA type DQ5 / all responding patients; PBMCs from TroVax treated patients

Substance | HLA-type distribution among positive proliferative responses: DQ5
43.2: class II 5T4 20 mer peptide (details in Table 12) (LNSADLDCDPILPPSLQTSY) [Peptide 43.2] | 3/11
44.2: class II 5T4 20 mer peptide (details in Table 12) (DPILPPSLQTSYVFLGIVLA) [Peptide 44.2] | 3/9
45.2: class II 5T4 20 mer peptide (details in Table 12) (MRNRVLLELNSADLDCDPIL) [Peptide 45.2] | 2/8

Same assay, conditions: responding patients with HLA type DQ6 / all responding patients; PBMCs from TroVax treated patients

Substance | HLA-type distribution among positive proliferative responses: DQ6
43.2: class II 5T4 20 mer peptide (details in Table 12) (LNSADLDCDPILPPSLQTSY) [Peptide 43.2] | 7/11
44.2: class II 5T4 20 mer peptide (details in Table 12) (DPILPPSLQTSYVFLGIVLA) [Peptide 44.2] | 5/9
45.2: class II 5T4 20 mer peptide (details in Table 12) (MRNRVLLELNSADLDCDPIL) [Peptide 45.2] | 5/8

Same assay, conditions: responding patients with HLA type DQ7 / all responding patients; PBMCs from TroVax treated patients

Substance | HLA-type distribution among positive proliferative responses: DQ7
43.2: class II 5T4 20 mer peptide (details in Table 12) (LNSADLDCDPILPPSLQTSY) [Peptide 43.2] | 1/11
44.2: class II 5T4 20 mer peptide (details in Table 12) (DPILPPSLQTSYVFLGIVLA) [Peptide 44.2] | 3/9
45.2: class II 5T4 20 mer peptide (details in Table 12) (MRNRVLLELNSADLDCDPIL) [Peptide 45.2] | 3/8

Same assay, conditions: responding patients with HLA type DQ8 / all responding patients; PBMCs from TroVax treated patients

Substance | HLA-type distribution among positive proliferative responses: DQ8
43.2: class II 5T4 20 mer peptide (details in Table 12) (LNSADLDCDPILPPSLQTSY) [Peptide 43.2] | 0/11
44.2: class II 5T4 20 mer peptide (details in Table 12) (DPILPPSLQTSYVFLGIVLA) [Peptide 44.2] | 0/9
45.2: class II 5T4 20 mer peptide (details in Table 12) (MRNRVLLELNSADLDCDPIL) [Peptide 45.2] | 0/8

Same assay, conditions: responding patients with HLA type DQ9 / all responding patients; PBMCs from TroVax treated patients

Substance | HLA-type distribution among positive proliferative responses: DQ9
43.2: class II 5T4 20 mer peptide (details in Table 12) (LNSADLDCDPILPPSLQTSY) [Peptide 43.2] | 1/11
44.2: class II 5T4 20 mer peptide (details in Table 12) (DPILPPSLQTSYVFLGIVLA) [Peptide 44.2] | 1/9
45.2: class II 5T4 20 mer peptide (details in Table 12) (MRNRVLLELNSADLDCDPIL) [Peptide 45.2] | 0/8

Same assay, conditions: responding patients with HLA type DR1 / all responding patients; PBMCs from TroVax treated patients

Substance | HLA-type distribution among positive proliferative responses: DR1
43.2: class II 5T4 20 mer peptide (details in Table 12) (LNSADLDCDPILPPSLQTSY) [Peptide 43.2] | 2/11
44.2: class II 5T4 20 mer peptide (details in Table 12) (DPILPPSLQTSYVFLGIVLA) [Peptide 44.2] | 2/9
45.2: class II 5T4 20 mer peptide (details in Table 12) (MRNRVLLELNSADLDCDPIL) [Peptide 45.2] | 2/8

Same assay, conditions: responding patients with HLA type DR4 / all responding patients; PBMCs from TroVax treated patients

Substance | HLA-type distribution among positive proliferative responses: DR4
43.2: class II 5T4 20 mer peptide (details in Table 12) (LNSADLDCDPILPPSLQTSY) [Peptide 43.2] | 0/11
44.2: class II 5T4 20 mer peptide (details in Table 12) (DPILPPSLQTSYVFLGIVLA) [Peptide 44.2] | 1/9
45.2: class II 5T4 20 mer peptide (details in Table 12) (MRNRVLLELNSADLDCDPIL) [Peptide 45.2] | 3/8

Same assay, conditions: responding patients with HLA type DR7 / all responding patients; PBMCs from TroVax treated patients

Substance | HLA-type distribution among positive proliferative responses: DR7
43.2: class II 5T4 20 mer peptide (details in Table 12) (LNSADLDCDPILPPSLQTSY) [Peptide 43.2] | 4/11
44.2: class II 5T4 20 mer peptide (details in Table 12) (DPILPPSLQTSYVFLGIVLA) [Peptide 44.2] | 0/9
45.2: class II 5T4 20 mer peptide (details in Table 12) (MRNRVLLELNSADLDCDPIL) [Peptide 45.2] | 2/8

Same assay, conditions: responding patients with HLA type DR8 / all responding patients; PBMCs from TroVax treated patients

Substance | HLA-type distribution among positive proliferative responses: DR8
43.2: class II 5T4 20 mer peptide (details in Table 12) (LNSADLDCDPILPPSLQTSY) [Peptide 43.2] | 1/11
44.2: class II 5T4 20 mer peptide (details in Table 12) (DPILPPSLQTSYVFLGIVLA) [Peptide 44.2] | 0/9
45.2: class II 5T4 20 mer peptide (details in Table 12) (MRNRVLLELNSADLDCDPIL) [Peptide 45.2] | 0/8

Same assay, conditions: responding patients with HLA type DR9 / all responding patients; PBMCs from TroVax treated patients

Substance | HLA-type distribution among positive proliferative responses: DR9
43.2: class II 5T4 20 mer peptide (details in Table 12) (LNSADLDCDPILPPSLQTSY) [Peptide 43.2] | 0/11
44.2: class II 5T4 20 mer peptide (details in Table 12) (DPILPPSLQTSYVFLGIVLA) [Peptide 44.2] | 1/9
45.2: class II 5T4 20 mer peptide (details in Table 12) (MRNRVLLELNSADLDCDPIL) [Peptide 45.2] | 0/8

Same assay, conditions: responding patients with HLA type DR11 / all responding patients; PBMCs from TroVax treated patients

Substance | HLA-type distribution among positive proliferative responses: DR11
43.2: class II 5T4 20 mer peptide (details in Table 12) (LNSADLDCDPILPPSLQTSY) [Peptide 43.2] | 1/11
44.2: class II 5T4 20 mer peptide (details in Table 12) (DPILPPSLQTSYVFLGIVLA) [Peptide 44.2] | 1/9
45.2: class II 5T4 20 mer peptide (details in Table 12) (MRNRVLLELNSADLDCDPIL) [Peptide 45.2] | 0/8

Same assay, conditions: responding patients with HLA type DR13 / all responding patients; PBMCs from TroVax treated patients

Substance | HLA-type distribution among positive proliferative responses: DR13
43.2: class II 5T4 20 mer peptide (details in Table 12) (LNSADLDCDPILPPSLQTSY) [Peptide 43.2] | 2/11
44.2: class II 5T4 20 mer peptide (details in Table 12) (DPILPPSLQTSYVFLGIVLA) [Peptide 44.2] | 1/9
45.2: class II 5T4 20 mer peptide (details in Table 12) (MRNRVLLELNSADLDCDPIL) [Peptide 45.2] | 1/8

Same assay, conditions: responding patients with HLA type DR15 / all responding patients; PBMCs from TroVax treated patients

Substance | HLA-type distribution among positive proliferative responses: DR15
43.2: class II 5T4 20 mer peptide (details in Table 12) (LNSADLDCDPILPPSLQTSY) [Peptide 43.2] | 6/11
44.2: class II 5T4 20 mer peptide (details in Table 12) (DPILPPSLQTSYVFLGIVLA) [Peptide 44.2] | 5/9
45.2: class II 5T4 20 mer peptide (details in Table 12) (MRNRVLLELNSADLDCDPIL) [Peptide 45.2] | 4/8

Same assay, conditions: responding patients with HLA type DR17 / all responding patients; PBMCs from TroVax treated patients

Substance | HLA-type distribution among positive proliferative responses: DR17
43.2: class II 5T4 20 mer peptide (details in Table 12) (LNSADLDCDPILPPSLQTSY) [Peptide 43.2] | 2/11
44.2: class II 5T4 20 mer peptide (details in Table 12) (DPILPPSLQTSYVFLGIVLA) [Peptide 44.2] | 3/9
45.2: class II 5T4 20 mer peptide (details in Table 12) (MRNRVLLELNSADLDCDPIL) [Peptide 45.2] | 1/8

Same assay, conditions: responding patients with HLA type DR51 / all responding patients; PBMCs from TroVax treated patients

Substance | HLA-type distribution among positive proliferative responses: DR51
43.2: class II 5T4 20 mer peptide (details in Table 12) (LNSADLDCDPILPPSLQTSY) [Peptide 43.2] | 6/11
44.2: class II 5T4 20 mer peptide (details in Table 12) (DPILPPSLQTSYVFLGIVLA) [Peptide 44.2] | 5/9
45.2: class II 5T4 20 mer peptide (details in Table 12) (MRNRVLLELNSADLDCDPIL) [Peptide 45.2] | 4/8

Same assay, conditions: responding patients with HLA type DR52 / all responding patients; PBMCs from TroVax treated patients

Substance | HLA-type distribution among positive proliferative responses: DR52
43.2: class II 5T4 20 mer peptide (details in Table 12) (LNSADLDCDPILPPSLQTSY) [Peptide 43.2] | 4/11
44.2: class II 5T4 20 mer peptide (details in Table 12) (DPILPPSLQTSYVFLGIVLA) [Peptide 44.2] | 5/9
45.2: class II 5T4 20 mer peptide (details in Table 12) (MRNRVLLELNSADLDCDPIL) [Peptide 45.2] | 2/8

Same assay, conditions: responding patients with HLA type DR53 / all responding patients; PBMCs from TroVax treated patients

Substance | HLA-type distribution among positive proliferative responses: DR53
43.2: class II 5T4 20 mer peptide (details in Table 12) (LNSADLDCDPILPPSLQTSY) [Peptide 43.2] | 3/11
44.2: class II 5T4 20 mer peptide (details in Table 12) (DPILPPSLQTSYVFLGIVLA) [Peptide 44.2] | 2/9
45.2: class II 5T4 20 mer peptide (details in Table 12) (MRNRVLLELNSADLDCDPIL) [Peptide 45.2] | 5/8
